Key:
[1] = test system: HG23 cells; assay: Nonspecific cytotoxic effects in HG23 cells; format: cell-based; conditions: cytotoxic dose for 50% cell death (CC50), 1 to 100 μM, 48 h, CytoTox 96 kit and crystal violet staining, average of at least two determinations
[2] = molecular target: NV 3CLpro (Norwalk virus, UniProt Q83883); assay: FRET protease assay, NV 3CLpro; format: biochemical; conditions: for Activity against NV 3CLpro and in cell based assays (in words): summary of Table 1; for Fold less active than compounds 13/25: n-pentyl chain versus m-chlorophenyl
NV 3CLpro, sequence (Q83883 1101-1281): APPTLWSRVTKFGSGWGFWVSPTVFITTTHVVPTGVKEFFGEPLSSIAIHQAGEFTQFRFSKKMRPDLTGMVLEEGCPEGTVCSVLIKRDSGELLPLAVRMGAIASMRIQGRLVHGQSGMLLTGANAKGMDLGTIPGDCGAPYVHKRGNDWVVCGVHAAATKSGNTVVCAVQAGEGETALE

| SMILES | TC50 (EC50) [1] [µM] | other results |
| --- | --- | --- |
| CC(C)C[C@@H]1NC(=O)OC(c2cccc(Cl)c2)CCCCCONC(=O)CC[C@@H](C=O)NC1=O (single isomer, unassigned) [Compound 36A] | 68.3 | – |
| CC(C)C[C@@H]1NC(=O)OC(c2cccc(Cl)c2)CCCCCONC(=O)CC[C@@H](C=O)NC1=O (single isomer, unassigned) [Compound 36B] | 73.8 | – |
| O=C[C@@H]1CCC(=O)NCCCCCC(c2cccc(Cl)c2)OC(=O)N[C@@H](CC2CCCCC2)C(=O)N1 (stereo partly drawn) [14(major), (4S, 7S)-17-(3-Chlorophenyl)-4-(cyclohexylmethyl)-2,5,10-trioxo-1-oxa-3,6,11-triazacycloheptadecane-7-carbaldehyde] | 62.4 | – |
| O=C[C@@H]1CCC(=O)NCCCCCC(c2cccc(Cl)c2)OC(=O)N[C@@H](CC2CCCCC2)C(=O)N1 (stereo partly drawn) [14(minor), (4S, 7S)-17-(3-Chlorophenyl)-4-(cyclohexylmethyl)-2,5,10-trioxo-1-oxa-3,6,11-triazacycloheptadecane-7-carbaldehyde] | 45.3 | – |
| CC(C)C[C@@H]1NC(=O)OC(c2ccccc2)CCCCCNC(=O)CC[C@@H](C=O)NC1=O (stereo partly drawn) [Compound 11, (4S, 7S)-4-Isobutyl-2,5,10-trioxo-17-phenyl-1-oxa-3,6,11-triazacycloheptadecane-7-carbaldehyde] | >100 | – |
| CC(C)C[C@@H]1NC(=O)OC(Cc2ccccc2)CCCCCNC(=O)CC[C@@H](C=O)NC1=O (stereo partly drawn) [Compound 12, (4S, 7S)-17-Benzyl-4-isobutyl-2,5,10-trioxo-1-oxa-3,6,11-triazacycloheptadecane-7-carbaldehyde] | >100 | – |
| CC(C)C[C@@H]1NC(=O)OC(c2cccc(Cl)c2)CCCCCNC(=O)CC[C@@H](C=O)NC1=O (stereo partly drawn) [Compound 13, (4S, 7S)-17-(3-Chlorophenyl)-4-isobutyl-2,5,10-trioxo-1-oxa-3,6,11-triazacycloheptadecane-7-carbaldehyde] | >100 | – |
| CC(C)C[C@@H]1NC(=O)OC(c2cccc(Cl)c2)CCCCCCNC(=O)CC[C@@H](C=O)NC1=O (stereo partly drawn) [Compound 15, (4S, 7S)-18-(3-Chlorophenyl)-4-isobutyl-2,5,10-trioxo-1-oxa-3,6,11-triazacyclooctadecane-7-carbaldehyde] | 67.4 | – |
| C[C@@H]1NC(=O)OC(c2cccc(Cl)c2)CCCCCNC(=O)CC[C@@H](C=O)NC1=O (stereo partly drawn) [Compound 16, (4S, 7S)-17-(3-Chlorophenyl)-4-methyl-2,5,10-trioxo-1-oxa-3,6,11-triazacycloheptadecane-7-carbaldehyde] | >100 | – |
| C[C@@H]1NC(=O)OC(c2cccc(Cl)c2)CCCCCCNC(=O)CC[C@@H](C=O)NC1=O (stereo partly drawn) [Compound 17, (4S, 7S)-18-(3-Chlorophenyl)-4-methyl-2,5,10-trioxo-1-oxa-3,6,11-triazacyclooctadecane-7-carbaldehyde] | >100 | – |
| O=C[C@@H]1CCC(=O)NCCCCCC(c2cccc(Cl)c2)OC(=O)NC2(CCCCC2)C(=O)N1 (stereo partly drawn) [Compound 18, (20S)-10-(3-Chlorophenyl)-8,17,22-trioxo-9-oxa-7,16,21-triazaspiro[5.16]docosane-20-carbaldehyde] | 62.4 | Activity against NV 3CLpro and in cell based assays (in words) [2]: inactive |
| O=C[C@@H]1CCC(=O)NCCCCCCC(c2cccc(Cl)c2)OC(=O)NC2(CCCCC2)C(=O)N1 (stereo partly drawn) [Compound 19, (21S)-10-(3-Chlorophenyl)-8,18,23-trioxo-9-oxa-7,17,22-triazaspiro [5.17] tricosane-21-carbaldehyde] | 53.3 | Activity against NV 3CLpro and in cell based assays (in words) [2]: inactive |
| CC(C)C[C@@H]1NC(=O)OC(CCCc2ccccc2)CCCCCNC(=O)CC[C@@H](C=O)NC1=O (stereo partly drawn) [Compound 20, (4S, 7S)-4-Isobutyl-2,5,10-trioxo-17-(3-phenylpropyl)-1-oxa-3,6,11-triazacycloheptadecane-7-carbaldehyde] | 71.5 | – |
| CCCCCC1CCCCCNC(=O)CC[C@@H](C=O)NC(=O)[C@H](CC(C)C)NC(=O)O1 (stereo partly drawn) [Compound 21, (4S, 7S)-4-Isobutyl-2,5,10-trioxo-17-pentyl-1-oxa-3,6,11-triazacycloheptadecane-7-carbaldehyde] | 72.7 | Fold less active than compounds 13/25 ([2]; Table 1): ~ 2 fold |
| CC(C)C[C@@H]1NC(=O)OC(Cc2ccccc2)CC/C=C/CNC(=O)CC[C@@H](C=O)NC1=O (stereo partly drawn) [Compound 23, (4S, 7S, E)-17-Benzyl-4-isobutyl-2,5,10-trioxo-1-oxa-3,6,11-triazacycloheptadec-13-ene-7-carbaldehyde] | >100 | Fold more potent than compound 12 ([2]; unsaturated linker versus saturated linker, Table 1): ~ 2 fold |
| O=C[C@@H]1CCC(=O)NC/C=C/CCC(c2cccc(Cl)c2)OC(=O)N[C@@H](CC2CCCCC2)C(=O)N1 (stereo partly drawn) [Compound 24, (4S, 7S, E)-17-(3-Chlorophenyl)-4-(cyclohexylmethyl)-2,5,10-trioxo-1-oxa-3,6,11-triazacycloheptadec-13-ene-7-carbaldehyde] | 42.3 | – |
| CC(C)C[C@@H]1NC(=O)OC(c2cccc(Cl)c2)CCCCCNC(=O)CC[C@@H](C(O)S(=O)(=O)[O-])NC1=O.[Na+] (stereo partly drawn) [Compound 25, Sodium ((4S, 7S)-17-(3-chlorophenyl)-4-isobutyl-2,5,10-trioxo-1-oxa-3,6,11-triazacycloheptadecan-7-yl) (hydroxy) methanesulfonate] | >100 | – |
| O=C1CC[C@@H](C(O)S(=O)(=O)[O-])NC(=O)C2(CCCCC2)NC(=O)OC(c2cccc(Cl)c2)CCCCCN1.[Na+] (stereo partly drawn) [Compound 26, Sodium ((20S)-10-(3-chlorophenyl)-8,17,22-trioxo-9-oxa-7,16,21-triazaspiro [5.16]docosan-20-yl) (hydroxy) methanesulfonate] | 48.5 | Activity against NV 3CLpro and in cell based assays (in words) [2]: inactive |
| O=C1CC[C@@H](C(O)S(=O)(=O)[O-])NC(=O)C2(CCCCC2)NC(=O)OC(c2cccc(Cl)c2)CCCCCCN1.[Na+] (stereo partly drawn) [Compound 27, Sodium ((21S)-10-(3-chlorophenyl)-8,18,23-trioxo-9-oxa-7,17,22-triazaspiro[5.17]tricosan-21-yl) (hydroxy) methanesulfonate] | 46.6 | Activity against NV 3CLpro and in cell based assays (in words) [2]: inactive |
| CC(C)C[C@@H]1NC(=O)OC(CCCc2ccccc2)CCCCCNC(=O)CC[C@@H](C(O)S(=O)(=O)[O-])NC1=O.[Na+] (stereo partly drawn) [Compound 28, Sodium hydroxyl ((4S, 7S)-4-isobutyl-2,5,10-trioxo-17-(3-phenylpropyl)-1-oxa-3,6,11-triazacycloheptadecan-7-yl) methanesulfonate] | 69.2 | – |
| CCCCCC1CCCCCNC(=O)CC[C@@H](C(O)S(=O)(=O)[O-])NC(=O)[C@H](CC(C)C)NC(=O)O1.[Na+] (stereo partly drawn) [Compound 29, Sodium hydroxyl ((4S, 7S)-4-isobutyl-2,5,10-trioxo-17-pentyl-1-oxa-3,6,11-triazacycloheptadecan-7-yl) methanesulfonate] | 78.5 | Fold less active than compounds 13/25 ([2]; Table 1): ~ 2 fold |
| CC(C)C[C@@H]1NC(=O)OC(c2cccc(Cl)c2)CCCCCNC(=O)CC[C@@H](C(=O)C(=O)NC2CC2)NC1=O (stereo partly drawn) [Compound 31, 2-((4S, 7S)-17-(3-Chlorophenyl)-4-isobutyl-2,5,10-trioxo-1-oxa-3,6,11-triazacycloheptadecan-7-yl)-N-cyclopropyl-2-oxoacetamide] | 53.1 | – |

Reference: article PMC5296247 (European journal of medicinal chemistry, 2016)
